From US12644889B2, “Viral condensates and methods of use thereof” (Whitehead Institute for Biomedical Research, priority 2020, dated 2026)

Target: T1, SARS-CoV-2 nucleocapsid condensates (Severe acute respiratory syndrome coronavirus 2, UniProt P0DTC9)
T1 construct: Streptavidin tag (so in the source); made in house; host or cells: HEK cells
Assay: drug partitioning assay in nucleocapsid condensates (confocal fluorescence microscopy)
Details: in vitro condensates not containing DNA; 10 uM nucleocapsid, 10% PEG, 1-50 uM drug

O=C1c2c(O)ccc(O)c2C(=O)c2c(NCCNCCO)ccc(NCCNCCO)c21 [mitoxantrone]
partitioning of drug into nucleocapsid condensates: partitions into SARS-CoV-2 nucleocapsid condensates not containing DNA
